# Values joined by “and” are separate entries in the source; they are usually repeats but may differ in a detail not shown here. Equal entries are not always repeated.
# Columns and labels:
# [1] = Proteolytic stability in human serum at 37 °C, radio-HPLC; type: in vitro ADME; details: 48 h
# Experimental: For proteolytic stability studies, a solution of the radiolabeled compound was diluted with human serum in a ratio of 1:10. This mixture then underwent incubation at 37 °C while being shaken at 300 rpm. At each designated timepoint (1, 24 and 48 h), an aliquot was withdrawn and added to a detergent solution (water with 20% v/v EtOH, 5% v/v 5 mM aqueous EDTA, 0.5% v/v Triton X-100, 0.1% m/v saponin, 0.05% v/v 0.5 mM aqueous o-phenanthroline) in a ratio of 1:2 for precipitation of serum proteins. The mixture was cooled on ice for 5 min, followed by centrifugation at 12,000 g for 5 min. A minor portion of the resulting supernatant was subjected to analytical radio-HPLC (reversed-phase, Phenomenex Jupiter 300 C-18, 5 µm, 4.6 × 250 mm) with 10–95% acetonitrile (0.1% TFA) in water (0.1% TFA) in a linear gradient over 15 min, 1 mL/min, γ-detection). The assessment and graphical representations were performed using OriginPro® 9.0.
# [2] = test system: PC3 PD-L1 overexpressing and PD-L1-mock tumors; experiment: PET imaging in NMRI-nude mice bearing PC3 PD-L1 and PC3 mock tumors; type: in vivo; details: for excretion pattern / clearance route in PET: PET 0–25 h p.i.; for SUVmax PC3 PD-L1 tumor / SUVmax PC3 mock tumor / SUVmax kidney / SUVmax liver: tracer only, i.v.
# Experimental: Male athymic NMRI-nude mice (Rj:NMRI-Foxn1nu, Janvier Labs, Le Genest-Saint-Isle, France) aged between 8 to 16 weeks were employed for the study. General anesthesia was induced [~ 10% desflurane (Baxter, Deerfield, IL, USA) in 30 vol% oxygen + air] under controlled warming (37°C), and mice were subcutaneously injected with 3–5 × 10^6 PC3 PD-L1 and PC3 mock cells (in 50 µL PBS + 50 µL Matrigel, Corning, Glendale, CA, USA) into the right and left thigh, respectively. The growth of tumors was systematically monitored three times per week through caliper measurements, and animals with tumor sizes above 7 mm were included in the subsequent experiments.
# PET and X-ray computed tomography (CT) scans were conducted under general anesthesia using a small animal nanoScan PET/CT scanner (Mediso, Budapest, Hungary), capable of imaging four animals simultaneously. CT images served attenuation correction and anatomical referencing. A total of three individual scans were conducted, corresponding to the timeframes of 0–2 h (dynamic reconstruction), 4–5 h, and 24–25 h (one frame reconstruction) after injection.
# The PD-L1 radiotracer candidates (in 300 µL sterile 0.9% NaCl/HEPES buffer, pH 6–7, containing between 7 and 12 MBq, with molar activities exceeding 12 GBq/µmol) were intravenously delivered over 30 s through a catheter in the lateral tail vein. The PET acquisition was initiated simultaneously with the administration.
# The acquired three-dimensional list mode data were sorted and binned within a 400–600 keV energy window, forming […] (15 × 10 s, 5 × 30 s, 5 × 60 s, 4 × 300 s, 3 × 600 s, 3 × 1200 s). Reconstruction of the time frames was accomplished using the Tera-TomoTM 3D algorithm, utilizing a voxel size of 0.4 mm and applying corrections for decay, scatter, and attenuation. The images were subjected to post-processing and analysis using Rover software (ABX GmbH, Radeberg, Germany), and were depicted as maximum intensity projections (MIPs) at the specified timepoints and scaling.
# Three-dimensional volumes of interest were defined using fixed thresholding at 35–40% of the maximal measured intensity. Standardized uptake values (SUV = [MBq detected activity/mL tissue] / [MBq injected activity/g body weight], in mL/g) were then calculated within the selected volumes of interest, encompassing PD-L1 and mock tumors, as well as metabolizing organs.
# [3] = n-octanol/PBS pH 7.4, shake flask
# Experimental: The n-octanol/water distribution coefficients for each radioligand were determined using the shake-flask method. Each experiment was conducted in triplicate. To initiate the experiment, 30 µL of the labeling mixture was combined with 570 µL of PBS (pH 7.4) and 600 µL of n-octanol in a 1.5 mL Eppendorf-Tube. The resulting mixture was shaken at room temperature at 1500 rpm for 5 min before undergoing centrifugation. An aliquot was extracted from each phase, and radioactivity was measured on a γ-counter (ISOMED 2160). Subsequently, mean values were calculated and adjusted for background activity. The log D7.4 value was determined utilizing the equation: logD7.4=logAn-octanol/APBS
# [4] = biological target: T1, PD-L1 (Homo sapiens, UniProt Q9NZQ7); experiment: Real-time radioligand binding (LigandTracer) on PC3 PD-L1 overexpressing cells, without BSA; design: expressed in transfected cells; host or cells: PC3 PD-L1 overexpressing cells
# Experimental: For the saturation binding experiments, cells were detached with 0.05% Trypsin–EDTA (Gibco, USA), and counted (CASY1 cell counter, Schaerfe System, Reutlingen, Germany). Cells were then diluted in medium to ~ 160,000 cells/mL and seeded in 48 well plates (Falcon Multiwell #353078, ThermoFisher, Karlsruhe, Germany) for at least 2 days prior to saturation binding experiments. For real-time radioligand binding, approximately 400,000 cells/mL were seeded into one side of petri dishes (3 mL, Nunclon, # 150350, ThermoFisher Germany) ~ 24 h before the experiments.
# To investigate binding kinetics, including the association rate constant (ka) and dissociation rate constant (kd), as well as the dissociation constant (KD), a real-time assay system (LigandTracer Yellow or LigandTracer White, Ridgeview Instruments AB, Uppsala, Sweden) was utilized. The petri dish contained attached cells in medium (3 mL) on one side, while radioactivity was detected on the opposing side. The petri dish is set upon an inclined base, allowing continuous measurement of alternating portions of the dish for bound radioligand (cells) compared to the background signal (no cells). Binding experiments were carried out at room temperature using CO2-independent medium (Gibco #18045088, ThermoFisher Germany).
# The association phase consisted of incubation with two concentrations (30 and 90 nM, each for 90 min) of our ^64Cu-labeled PD-L1-radioligands, binding to PC3 PD-L1 overexpressing cells. Following this, the incubation medium was replaced with fresh medium, and the dissociation phase was monitored for a minimum of 2 h. […] Data were recorded as decay-corrected counts per second (CPS). Subsequently, binding data were analyzed using TraceDrawer software (version 1.9.2, Ridgeview Instruments AB, Uppsala, Sweden). Traces were imported, potential spikes (instances of sudden CPS increases exceeding 100% of the previous data point) were eliminated, and each trace was normalized to its own baseline (set as 0%) and its maximum value (set as 100%).
# [5] = biological target: T1, PD-L1; experiment: Saturation binding assay on human PD-L1 transduced PC3 cells (assay buffer with 2.5% BSA); design: expressed in transfected cells; host or cells: PC3 cells transduced with human PD-L1 (PC3-PD-L1)
# [6] = 1-2 hour p.i., mice, listed as [64Cu]Cu-17
# [7] = 4-5 hour p.i., mice, listed as [64Cu]Cu-17
# [8] = 24-25 hour p.i., mice, listed as [64Cu]Cu-17
# [9] = tracer +500 nM respective unlabeled compound, 1-2 hour p.i., mice
# [10] = tracer +500 nM respective unlabeled compound, 4-5 hour p.i., mice
# [11] = tracer +500 nM respective unlabeled compound, 24-25 hour p.i., mice
# [12] = 1-2 hour p.i., mice, listed as [64Cu]Cu-15
# T1 sequence (Q9NZQ7 19-290): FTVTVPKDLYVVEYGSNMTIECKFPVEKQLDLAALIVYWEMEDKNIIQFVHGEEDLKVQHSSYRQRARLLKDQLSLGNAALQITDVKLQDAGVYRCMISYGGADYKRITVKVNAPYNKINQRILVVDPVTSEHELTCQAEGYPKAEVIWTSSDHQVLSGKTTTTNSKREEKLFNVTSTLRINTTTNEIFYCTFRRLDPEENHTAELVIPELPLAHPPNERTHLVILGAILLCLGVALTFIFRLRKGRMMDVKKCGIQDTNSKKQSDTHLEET
compound,measurement,setting,value
Cc1c(COc2cc(OCc3cncc(S(C)(=O)=O)c3)c(CN[C@@H](CS(=O)(=O)O)C(=O)NCCS(=O)(=O)O)cc2Br)cccc1-c1cccc(OCc2cn(CCCN3CCN(C(=O)[C@H](CS(=O)(=O)O)NC(=O)CCCC(=O)NC45CNCCNCC(NC(=O)CCCC(=O)N[C@@H](CS(=O)(=O)O)C(=O)N6CCN(CCCn7cc(COc8cccc(-c9cccc(COc%10cc(OCc%11cncc(S(C)(=O)=O)c%11)c(CN[C@@H](CS(=O)(=O)O)C(=O)NCCS(=O)(=O)O)cc%10Br)c9C)c8C)nn7)CC6)(CNCCNC4)CNCCNC5)CC3)nn2)c1C.[64Cu+2] [[^64Cu]Cu-17],intact radioligand after incubation in human serum,[1],86%
same,contrast of PD-L1 positive tumor to PD-L1 negative tumor,[2]; 24–25 h p.i.,109%
same,excretion pattern / clearance route in PET,[2]; mice,rather renal than hepatobiliary clearance
same,SUVmax PC3 PD-L1 tumor,"[2]; 1-2 hour p.i., mice",0.49 ± 0.11
same,SUVmax PC3 mock tumor,"[2]; 1-2 hour p.i., mice",0.31
same,SUVmax kidney,"[2]; 1-2 hour p.i., mice",1.32 ± 0.47
same,SUVmax liver,"[2]; 1-2 hour p.i., mice",17.0 ± 1.48
same,SUVmax PC3 PD-L1 tumor,[2]; [6],0.49
same,SUVmax kidney,[2]; [6],1.32
same,SUVmax liver,[2]; [6],17.03
same,SUVmax PC3 PD-L1 tumor,"[2]; 4-5 hour p.i., mice",0.81
same,SUVmax PC3 mock tumor,"[2]; 4-5 hour p.i., mice",0.50
same,SUVmax kidney,"[2]; 4-5 hour p.i., mice",2.18 ± 0.80
same,SUVmax liver,"[2]; 4-5 hour p.i., mice",14.4 ± 1.26
same,SUVmax kidney,[2]; [7],2.18
same,SUVmax liver,[2]; [7],14.35
same,SUVmax PC3 PD-L1 tumor,"[2]; 24-25 hour p.i., mice",2.47 ± 1.04
same,SUVmax PC3 mock tumor,"[2]; 24-25 hour p.i., mice",1.18
same,SUVmax kidney,"[2]; 24-25 hour p.i., mice",2.40 ± 0.60
same,SUVmax liver,"[2]; 24-25 hour p.i., mice",8.62 ± 0.84
same,SUVmax PC3 PD-L1 tumor,[2]; [8],2.47
same,SUVmax kidney,[2]; [8],2.40
same,SUVmax liver,[2]; [8],8.62
Cc1c(COc2cc(OCc3cncc(S(C)(=O)=O)c3)c(CN[C@@H](CS(=O)(=O)O)C(=O)NCCS(=O)(=O)O)cc2Br)cccc1-c1cccc(OCc2cn(CCCN3CCN(C(=O)[C@H](CS(=O)(=O)O)NC(=O)CN4CCCN5CCN(CCCN(CC(=O)[O-])CC5)CC4)CC3)nn2)c1C.[64Cu+2] [[^64Cu]Cu-15],Log D7.4,[3],–2.11 ± 0.02
same,intact radioligand after incubation in human serum,[1],88%
same,PD-L1 tumor uptake after preinjection of 500 nmol of cold ligand,"[2]; blocking, mice",not significantly reduced
same,excretion pattern / clearance route in PET,[2]; mice,hepatobiliary excretion pattern
same,"SUVmax PC3 PD-L1 tumor, blocking","[2]; tracer +500 nM respective unlabeled compound (injected 5 min prior), 1-2 hour p.i., mice",1.58
same,"SUVmax PC3 mock tumor, blocking",[2]; [9],1.17
same,"SUVmax kidney, blocking",[2]; [9],7.41
same,"SUVmax liver, blocking",[2]; [9],1.49
same,"SUVmax PC3 PD-L1 tumor, blocking",[2]; [10],0.77
same,"SUVmax PC3 mock tumor, blocking",[2]; [10],0.57
same,"SUVmax kidney, blocking",[2]; [10],0.78
same,"SUVmax liver, blocking",[2]; [10],1.82
same,"SUVmax PC3 PD-L1 tumor, blocking",[2]; [11],0.91
same,"SUVmax PC3 mock tumor, blocking",[2]; [11],0.78
same,"SUVmax kidney, blocking",[2]; [11],0.51
same,"SUVmax liver, blocking",[2]; [11],0.78
same,SUVmax PC3 PD-L1 tumor,"[2]; 1-2 hour p.i., mice",1.03 ± 0.23
same,SUVmax PC3 mock tumor,"[2]; 1-2 hour p.i., mice",0.61
same,SUVmax kidney,"[2]; 1-2 hour p.i., mice",3.26 ± 0.98
same,SUVmax liver,"[2]; 1-2 hour p.i., mice",3.80 ± 0.33
same,SUVmax PC3 PD-L1 tumor,[2]; [12],1.03
same,SUVmax kidney,[2]; [12],3.26
same,SUVmax liver,[2]; [12],3.80
same,SUVmax PC3 PD-L1 tumor,"[2]; 4-5 hour p.i., mice",0.66 ± 0.16
same,SUVmax PC3 mock tumor,"[2]; 4-5 hour p.i., mice",0.44
same,SUVmax kidney,"[2]; 4-5 hour p.i., mice",0.68
same,SUVmax liver,"[2]; 4-5 hour p.i., mice",1.41
same,SUVmax PC3 PD-L1 tumor,"[2]; 4-5 hour p.i., mice, listed as [64Cu]Cu-15",0.66
same,SUVmax PC3 PD-L1 tumor,"[2]; 24-25 hour p.i., mice",0.90 ± 0.09
same,SUVmax PC3 mock tumor,"[2]; 24-25 hour p.i., mice",0.76
same,SUVmax kidney,"[2]; 24-25 hour p.i., mice",0.48
same,SUVmax liver,"[2]; 24-25 hour p.i., mice",1.01
same,SUVmax PC3 PD-L1 tumor,"[2]; 24-25 hour p.i., mice, listed as [64Cu]Cu-15",0.90
same,Kd,"[4]; PC3 PD-L1 overexpressing cells, room temperature, without BSA",~20 nM and 19.1 nM
same,ka,"[4]; association rate constant, real-time binding",(5.10 ± 0.55) × 10^3 (M × s)^–1
same,kd,"[4]; dissociation rate constant, real-time binding",(0.96 ± 0.02) × 10^–4 s^–1
same,Kd,"[5]; human PD-L1 transduced PC3 cells, on ice 90 min, PBS + 2.5% w/v BSA",185 nM
same,Bmax,"[5]; saturation binding, pmol/mg protein, PC3 PD-L1 cells",2.58 ± 0.35 pmol/mg

# Reference: paper PMC10876507, “Chelator impact: investigating the pharmacokinetic behavior of copper-64 labeled PD-L1 radioligands” (EJNMMI Radiopharmacy and Chemistry, 2024)
